Measured values as given in ChEMBL document CHEMBL1770117 (Bioorg Med Chem Lett, 2011).

Assays:
[1] = molecular target: Metabotropic glutamate receptor 5 (Homo sapiens) (UniProt P41594); test: Positive allosteric modulator activity at mGluR5 receptor expressed in HEK293A cells assessed as maximum glutamate-induced response preincubated for 140 secs before glutamate challenge by calcium fluorescence assay; type: functional, cell-based; conditions: HEK293-A
[2] = molecular target: T1, Metabotropic glutamate receptor 5 (Rattus norvegicus, UniProt P31424); test: Positive allosteric modulator activity at mGluR5 receptor expressed in HEK293A cells assessed as effect on glutamate-induced calcium flux preincubated for 140 secs before glutamate challenge by calcium fluorescence assay; type: functional, cell-based, HEK293-A
Target sequence in this assay (P31424 whole entry, looked up): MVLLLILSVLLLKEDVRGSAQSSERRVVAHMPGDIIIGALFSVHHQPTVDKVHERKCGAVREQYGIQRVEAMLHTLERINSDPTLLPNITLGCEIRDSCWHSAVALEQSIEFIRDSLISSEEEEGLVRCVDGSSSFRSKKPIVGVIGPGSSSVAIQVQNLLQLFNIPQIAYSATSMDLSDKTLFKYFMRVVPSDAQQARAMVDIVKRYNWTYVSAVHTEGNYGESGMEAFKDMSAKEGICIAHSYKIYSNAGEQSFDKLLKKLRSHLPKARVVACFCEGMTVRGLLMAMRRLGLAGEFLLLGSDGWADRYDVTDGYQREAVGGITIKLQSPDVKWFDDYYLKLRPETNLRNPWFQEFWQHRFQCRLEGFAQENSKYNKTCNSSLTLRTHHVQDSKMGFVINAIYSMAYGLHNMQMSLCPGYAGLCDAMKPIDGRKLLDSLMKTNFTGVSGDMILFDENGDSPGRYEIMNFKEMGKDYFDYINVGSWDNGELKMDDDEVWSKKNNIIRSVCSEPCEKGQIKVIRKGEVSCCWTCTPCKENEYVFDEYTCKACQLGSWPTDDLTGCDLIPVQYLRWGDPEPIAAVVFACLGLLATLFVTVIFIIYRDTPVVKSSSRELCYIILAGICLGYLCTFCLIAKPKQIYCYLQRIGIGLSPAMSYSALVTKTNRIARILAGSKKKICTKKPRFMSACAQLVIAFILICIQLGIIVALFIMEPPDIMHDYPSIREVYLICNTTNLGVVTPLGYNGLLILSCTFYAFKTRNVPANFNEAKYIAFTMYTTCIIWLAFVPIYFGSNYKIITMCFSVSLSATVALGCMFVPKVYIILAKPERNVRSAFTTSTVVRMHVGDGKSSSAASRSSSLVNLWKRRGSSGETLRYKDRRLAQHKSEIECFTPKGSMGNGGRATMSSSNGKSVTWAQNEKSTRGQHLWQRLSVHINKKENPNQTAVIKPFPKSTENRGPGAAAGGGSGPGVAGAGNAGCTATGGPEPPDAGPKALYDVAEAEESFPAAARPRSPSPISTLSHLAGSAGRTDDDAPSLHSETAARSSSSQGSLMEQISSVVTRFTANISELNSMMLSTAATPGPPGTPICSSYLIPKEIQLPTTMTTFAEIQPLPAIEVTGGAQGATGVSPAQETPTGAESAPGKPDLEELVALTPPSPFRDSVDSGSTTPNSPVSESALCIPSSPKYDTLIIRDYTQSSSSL

[3] = molecular target: Metabotropic glutamate receptor 5 (Homo sapiens) (UniProt P41594); test: Negative allosteric modulator activity at mGluR5 receptor expressed in HEK293A cells assessed as maximum glutamate-induced response preincubated for 140 secs before glutamate challenge by calcium fluorescence assay; type: functional, cell-based; conditions: HEK293-A
[4] = molecular target: T1, Metabotropic glutamate receptor 5; test: Negative allosteric modulator activity at mGluR5 receptor expressed in HEK293A cells assessed as inhibition of glutamate-induced calcium flux preincubated for 140 secs before glutamate challenge by calcium fluorescence assay; type: functional, cell-based, HEK293-A
Target sequence in this assay (P31424 whole entry, looked up): as above

[5] = molecular target: T1, Metabotropic glutamate receptor 5; test: Partial antagonist activity at mGluR5 receptor expressed in HEK293A cells assessed as inhibition of glutamate-induced calcium flux preincubated for 140 secs before glutamate challenge by calcium fluorescence assay; type: functional, cell-based, HEK293-A
Target sequence in this assay (P31424 whole entry, looked up): as above

[6] = molecular target: Metabotropic glutamate receptor 5 (Homo sapiens) (UniProt P41594); test: Partial antagonist activity at mGluR5 receptor expressed in HEK293A cells assessed as maximum glutamate-induced response preincubated for 140 secs before glutamate challenge by calcium fluorescence assay; type: functional, cell-based; parameters: scale not given: the % may be the effect or the level left; conditions: HEK293-A
[7] = molecular target: T1, Metabotropic glutamate receptor 5; test: Positive allosteric modulator activity at rat mGlu5 receptor expressed in HEK293A cells assessed as increase in glutamate induced response; type: cell-based, HEK293-A
Target sequence in this assay (P31424 whole entry): as the sequence (P31424 whole entry, looked up) above

[8] = molecular target: Metabotropic glutamate receptor 5 (Rattus norvegicus) (UniProt P31424); test: Positive allosteric modulator activity at rat mGlu5 receptor expressed in HEK293A cells assessed as fold shift in glutamate induced response relative to control; type: cell-based; conditions: HEK293-A
Sequence of Metabotropic glutamate receptor 5 (Rattus norvegicus) (P31424 21-1203 limits assumed): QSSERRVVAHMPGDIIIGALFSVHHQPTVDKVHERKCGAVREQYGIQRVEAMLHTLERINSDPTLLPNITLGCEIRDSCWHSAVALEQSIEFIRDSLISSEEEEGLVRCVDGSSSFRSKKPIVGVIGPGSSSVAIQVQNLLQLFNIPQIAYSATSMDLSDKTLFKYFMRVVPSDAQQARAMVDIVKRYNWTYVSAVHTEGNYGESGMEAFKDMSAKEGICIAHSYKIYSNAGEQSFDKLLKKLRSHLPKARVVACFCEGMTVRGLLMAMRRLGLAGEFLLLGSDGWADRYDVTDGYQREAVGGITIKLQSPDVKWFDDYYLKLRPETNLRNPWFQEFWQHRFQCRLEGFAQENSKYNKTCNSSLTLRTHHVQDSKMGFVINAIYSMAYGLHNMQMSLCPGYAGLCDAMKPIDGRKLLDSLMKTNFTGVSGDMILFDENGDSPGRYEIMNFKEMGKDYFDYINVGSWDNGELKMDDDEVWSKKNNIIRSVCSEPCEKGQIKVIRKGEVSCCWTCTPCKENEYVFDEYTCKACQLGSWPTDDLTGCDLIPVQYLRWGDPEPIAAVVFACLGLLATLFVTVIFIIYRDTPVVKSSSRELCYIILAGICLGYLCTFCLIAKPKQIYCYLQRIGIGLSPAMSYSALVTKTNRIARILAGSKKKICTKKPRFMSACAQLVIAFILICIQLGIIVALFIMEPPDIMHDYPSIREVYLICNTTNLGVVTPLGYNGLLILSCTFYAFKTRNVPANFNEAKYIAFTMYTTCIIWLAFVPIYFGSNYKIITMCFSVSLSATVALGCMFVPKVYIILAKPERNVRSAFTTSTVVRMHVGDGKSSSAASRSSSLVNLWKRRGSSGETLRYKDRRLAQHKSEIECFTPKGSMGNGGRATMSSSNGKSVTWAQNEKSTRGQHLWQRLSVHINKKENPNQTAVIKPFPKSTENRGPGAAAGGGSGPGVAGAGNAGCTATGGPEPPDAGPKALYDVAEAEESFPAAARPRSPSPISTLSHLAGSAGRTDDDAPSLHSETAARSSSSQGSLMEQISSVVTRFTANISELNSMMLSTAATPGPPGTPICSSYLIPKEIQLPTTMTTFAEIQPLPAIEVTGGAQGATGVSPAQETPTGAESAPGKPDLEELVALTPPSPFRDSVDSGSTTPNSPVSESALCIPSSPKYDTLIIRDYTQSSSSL

[9] = molecular target: T1, Metabotropic glutamate receptor 5; test: Ago-Positive allosteric modulator activity at mGluR5 receptor expressed in HEK293A cells assessed as effect on glutamate-induced calcium flux preincubated for 140 secs before glutamate challenge by calcium fluorescence assay; type: functional, cell-based, HEK293-A
Target sequence in this assay (P31424 whole entry, looked up): as the sequence (P31424 whole entry, looked up) above

[10] = molecular target: Metabotropic glutamate receptor 5 (Homo sapiens) (UniProt P41594); test: Ago-Positive allosteric modulator activity at mGluR5 receptor expressed in HEK293A cells assessed as maximum glutamate-induced response preincubated for 140 secs before glutamate challenge by calcium fluorescence assay; type: functional, cell-based; conditions: HEK293-A
[11] = molecular target: T1, Metabotropic glutamate receptor 5; test: Negative allosteric modulator activity at rat mGluR5 receptor expressed in HEK293A cells
Target sequence in this assay (P31424 whole entry): as the sequence (P31424 whole entry, looked up) above

Sequence of Metabotropic glutamate receptor 5 (Homo sapiens) (P41594 21-1212 limits assumed): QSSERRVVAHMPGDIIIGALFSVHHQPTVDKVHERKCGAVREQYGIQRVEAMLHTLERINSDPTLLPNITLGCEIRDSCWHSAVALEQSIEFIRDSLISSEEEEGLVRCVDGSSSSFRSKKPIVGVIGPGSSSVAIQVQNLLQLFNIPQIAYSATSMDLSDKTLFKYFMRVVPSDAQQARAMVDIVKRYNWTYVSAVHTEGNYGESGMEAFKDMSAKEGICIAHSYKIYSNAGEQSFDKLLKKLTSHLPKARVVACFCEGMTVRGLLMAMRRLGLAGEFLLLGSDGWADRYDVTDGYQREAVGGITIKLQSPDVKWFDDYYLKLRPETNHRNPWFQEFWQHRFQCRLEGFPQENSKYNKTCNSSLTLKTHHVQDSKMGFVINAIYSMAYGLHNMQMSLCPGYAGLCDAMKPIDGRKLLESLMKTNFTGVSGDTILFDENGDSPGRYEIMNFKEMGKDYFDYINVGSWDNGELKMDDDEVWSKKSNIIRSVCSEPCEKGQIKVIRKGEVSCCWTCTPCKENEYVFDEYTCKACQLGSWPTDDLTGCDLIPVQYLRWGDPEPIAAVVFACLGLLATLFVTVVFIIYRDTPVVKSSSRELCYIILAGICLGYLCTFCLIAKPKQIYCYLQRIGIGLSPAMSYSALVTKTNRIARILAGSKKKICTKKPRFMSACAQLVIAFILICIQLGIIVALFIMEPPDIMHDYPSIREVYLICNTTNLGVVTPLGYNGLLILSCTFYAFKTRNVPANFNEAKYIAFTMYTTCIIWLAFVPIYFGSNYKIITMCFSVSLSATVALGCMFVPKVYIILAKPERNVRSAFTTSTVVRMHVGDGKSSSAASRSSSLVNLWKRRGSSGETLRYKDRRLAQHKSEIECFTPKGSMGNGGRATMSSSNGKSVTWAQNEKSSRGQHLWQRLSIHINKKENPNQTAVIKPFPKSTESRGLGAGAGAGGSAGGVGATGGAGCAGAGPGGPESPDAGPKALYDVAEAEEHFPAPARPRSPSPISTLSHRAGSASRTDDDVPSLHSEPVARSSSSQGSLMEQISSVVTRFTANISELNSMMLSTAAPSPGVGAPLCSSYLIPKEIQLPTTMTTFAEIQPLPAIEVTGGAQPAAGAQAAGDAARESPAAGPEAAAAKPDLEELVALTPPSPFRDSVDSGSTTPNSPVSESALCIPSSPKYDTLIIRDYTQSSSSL

Compound	Activity [1]	EC50 [2]	Activity [3]	IC50 [4]	further results
O=C(C1CCC1)N1CCC[C@H](c2nc(-c3cccc(Cl)c3)no2)C1	–	–	2.4%	200 nM	–
O=C(c1ccc(F)c(F)c1)N1CCCC1c1nc(-c2cccc(F)c2)no1 (centres undefined)	62%	3700 nM	–	–	–
Cc1cccc(-c2noc([C@H]3CCCCN3C(=O)C3CC3)n2)c1	–	–	–	–	IC50 [5]: 280 nM; Activity [6]: 16%
O=C(c1ccc(F)cc1)N1CCCC1c1nc(-c2cccc(F)c2)no1 (centres undefined)	59%	3600 nM	–	–	–
O=C(C1CCC1)N1CCCC[C@H]1c1nc(-c2ccccn2)no1	–	–	–	10000 nM	–
Cc1cccc(-c2noc([C@H]3CCCCN3C(=O)c3cccc(F)c3)n2)c1	–	–	16%	4700 nM	–
O=C(C1CCC1)N1CCC[C@@H](c2nc(-c3ccccn3)no2)C1	–	–	19%	9900 nM	–
Cc1cccc(-c2noc([C@@H]3CCCCN3C(=O)C3CCC3)n2)c1	–	–	–	500 nM	–
O=C(c1cccs1)N1CCCC1c1nc(-c2cccc(F)c2)no1 (centres undefined)	60%	430 nM	–	–	–
O=C(C1CCC1)N1CCC[C@@H](c2nc(-c3cccc(F)c3)no2)C1	–	–	60%	> 10000 nM	–
O=C(C1CCC1)N1CCC[C@H](c2nc(-c3cccs3)no2)C1	–	–	67%	9300 nM	–
O=C(c1ccc(F)cc1F)N1CCCC1c1nc(-c2cccc(F)c2)no1 (centres undefined)	61%	10000 nM	–	–	–
O=C(c1cccc(F)c1)N1CCCC[C@@H]1c1nc(-c2cccc(F)c2)no1	59%	460 nM	–	–	–
O=C(c1ccc(F)cc1F)N1CCC[C@H](c2nc(-c3ccccn3)no2)C1	–	–	–	–	EC50 [7]: 240 nM; fold change (FC) [8]: 14
COc1cccc(-c2noc([C@H]3CCCN(C(=O)C4CCC4)C3)n2)c1	–	–	2.1%	1800 nM	–
Cc1cccc(-c2noc([C@H]3CCCCN3C(=O)C3CCC3)n2)c1	–	–	–	300 nM	–
COc1cccc(-c2noc([C@@H]3CCCN(C(=O)C4CCC4)C3)n2)c1	–	–	54%	> 10000 nM	–
O=C(c1cccs1)N1CCCC[C@@H]1c1nc(-c2cccc(F)c2)no1	34%	–	–	–	–
Cc1cccc(-c2noc([C@H]3CCCCN3C(=O)c3ccc(F)c(F)c3)n2)c1	–	–	46%	10000 nM	–
Cc1ccc(C#Cc2cncnc2)cc1	–	–	–	–	fold change (FC) [8]: 4.2

Compound	Activity [1]	EC50 [2]	Activity [3]	IC50 [4]	further results
Cc1cccc(-c2noc(C3CCCN3C(=O)C3CCC3)n2)c1 (racemic)	–	–	34%	2400 nM	–
Cc1cccc(-c2noc([C@H]3CCCCN3C(=O)c3cccs3)n2)c1	–	–	0.9%	730 nM	–
O=C(C1CCC1)N1CCC[C@@H](c2nc(-c3cccc(Cl)c3)no2)C1	–	–	18%	3100 nM	–
Cc1cccc(-c2noc([C@H]3CCCCN3C(=O)c3ccc(F)cc3)n2)c1	–	–	47%	10000 nM	–
O=C(C1CCC1)N1CCC[C@H](c2nc(-c3cccc(F)c3)no2)C1	–	–	31%	2400 nM	–
Cc1cccc(-c2noc([C@H]3CCCN(C(=O)C4CCC4)C3)n2)c1	–	–	2.5%	700 nM	–
O=C(C1CCCC1)N1CCCC[C@@H]1c1nc(-c2cccc(F)c2)no1	–	–	–	–	EC50 [9]: 310 nM; Activity [10]: 80%
O=C(c1cccc(F)c1)N1CCCC1c1nc(-c2cccc(F)c2)no1 (centres undefined)	47%	2600 nM	–	–	–
O=C(c1ccc(F)cc1)N1CCCC[C@@H]1c1nc(-c2cccc(F)c2)no1	91%	–	–	–	–
O=C(C1CCC1)N1CCC[C@H](c2nc(-c3ccccn3)no2)C1	–	–	33%	> 10000 nM	IC50 [11]: 8700 nM
O=C(c1ccc(F)c(F)c1)N1CCCC[C@@H]1c1nc(-c2cccc(F)c2)no1	93%	1400 nM	–	–	–
O=C(C1CCC1)N1CCCC[C@H]1c1nc(-c2cccs2)no1	–	–	–	2600 nM	–
O=C(C1CCC1)N1CCCC[C@@H]1c1nc(-c2cccs2)no1	–	–	–	3500 nM	–
COc1cccc(-c2noc([C@H]3CCCCN3C(=O)C3CCC3)n2)c1	–	–	–	300 nM	–
O=C(C1CC1)N1CCCC[C@@H]1c1nc(-c2cccc(F)c2)no1	–	–	–	–	EC50 [9]: 80 nM; Activity [10]: 70%
Cc1cccc(-c2noc([C@H]3CCCCN3C(=O)C3CCCC3)n2)c1	–	–	–	–	IC50 [5]: 600 nM; Activity [6]: 24%
COc1cccc(-c2noc([C@@H]3CCCCN3C(=O)C3CCC3)n2)c1	–	–	–	80 nM	–
O=C(c1ccc(F)cc1F)N1CCCC[C@@H]1c1nc(-c2cccc(F)c2)no1	95%	2900 nM	–	–	–
O=C(c1ccc(F)cc1)N1CCC[C@H](c2nc(-c3cccs3)no2)C1	–	–	–	–	EC50 [7]: 170 nM; fold change (FC) [8]: 20

Now from value to compound, other results behind:

Activity [1]	EC50 [2]	Activity [3]	Compound	IC50 [4]	further results
68%	2900 nM	–	O=C(C1CC1)N1CCCC1c1nc(-c2cccc(F)c2)no1 (centres undefined)	–	–
–	700 nM	–	O=C(C1CCC1)N1CCCC[C@H]1c1nc(-c2cccc(F)c2)no1	–	–
38%	–	–	O=C(C1CCC1)N1CCCC[C@@H]1c1nc(-c2cccc(F)c2)no1 (stereo in doubt; 22b) [listing 1 of 2 here]	–	–
–	600 nM	–	O=C(C1CCC1)N1CCCC[C@@H]1c1nc(-c2cccc(F)c2)no1 (stereo in doubt; (R)-20c)	–	–
75%	1000 nM	–	O=C(C1CCCC1)N1CCCC1c1nc(-c2cccc(F)c2)no1 (centres undefined)	–	–
57.3%	7000 nM	–	O=C(C1CCC1)N1CCC[C@H]1c1nc(-c2cccc(F)c2)no1	–	–
63%	–	–	O=C(C1CCC1)N1CCCC1c1nc(-c2cccc(F)c2)no1 (stereo in doubt; 24b) [listing 1 of 2 here]	–	–
–	650 nM	–	O=C(C1CCC1)N1CCCC[C@@H]1c1nc(-c2cccc(F)c2)no1 (stereo in doubt; 22b) [listing 2 of 2 here]	–	–
–	–	9.2%	Cc1cccc(-c2noc([C@H]3CCCCN3C(=O)C3CCCCC3)n2)c1	2500 nM	–
68.4%	530 nM	–	O=C(C1CCC1)N1CCC[C@@H]1c1nc(-c2cccc(F)c2)no1	–	–
72%	2700 nM	–	O=C(C1CCC1)N1CCCC1c1nc(-c2ccc(F)cc2)no1 (racemic)	–	–
–	–	14%	Cc1cccc(-c2noc([C@@H]3CCCN(C(=O)C4CCC4)C3)n2)c1	4700 nM	–
–	1500 nM	–	O=C(C1CCC1)N1CCCC1c1nc(-c2cccc(F)c2)no1 (stereo in doubt; 24b) [listing 2 of 2 here]	–	–
58%	3500 nM	–	O=C(C1CCCCC1)N1CCCC[C@@H]1c1nc(-c2cccc(F)c2)no1	–	–
–	–	25%	O=C(C1CCC1)N1CCCC1c1nc(-c2cccc(Cl)c2)no1 (racemic)	10000 nM	–
64%	–	–	O=C(C1CCC1)N1CCCC1c1nc(-c2cccc(F)c2)no1 (racemic)	–	–
